# Laboratory results taken from the supplement of paper PMC9103864.
# Experiments:
# [1] = system: BMSC (primary human bone marrow mesenchymal stromal cells); test: absolute EC50 for viability; higher = less sensitive
# [2] = system: BMSC (primary human bone marrow mesenchymal stromal cells); test: drug sensitivity score (DSS); higher = more sensitive
SMILES,absolute EC50 for viability [1],drug sensitivity score [2]
CC(=O)Nc1cccc(-n2c(=O)n(C3CC3)c(=O)c3c(Nc4ccc(I)cc4F)n(C)c(=O)c(C)c32)c1 [Trametinib],> 0.25 µM,2.7
CC1=C(/C=C/C(C)=C/C=C/C(C)=C/C(=O)O)C(C)(C)CCC1 [Tretinoin],> 10 µM,0
NC(=S)N/N=C/c1ncccc1N [Triapine],> 10 µM,0
O=c1[nH]c(=O)n([C@H]2C[C@H](O)[C@@H](CO)O2)cc1C(F)(F)F [Trifluridine],> 10 µM,0
O=C(CCCCCCC(=O)Nc1ccc([C@H]2O[C@@H](CSc3nc(-c4ccccc4)c(-c4ccccc4)o3)C[C@@H](c3ccc(CO)cc3)O2)cc1)NO [Tubacin],> 10 µM,0
CN1CCc2c(c3ccccc3n2Cc2ccc(C(=O)NO)cc2)C1 [Tubastatin A],9.93 µM,0
CN[C@@H]1C[C@H]2O[C@@](C)([C@@H]1OC)n1c3ccccc3c3c4c(c5c6ccccc6n2c5c31)C(=O)N[C@H]4O [UCN-01],0.643 µM,13.3
COC(=O)c1ccc2c(c1)[nH]c1ncnc(NCCCN3CCCCC3)c12 [UM729],> 10 µM,3.3
COc1cc2c(NC3CCN(C(C)C)CC3)nc(C3CCCCC3)nc2cc1OCCCN1CCCC1 [UNC0638],3.29 µM,5.4
COc1cc2c(NC3CCN(C(C)C)CC3)nc(N3CCC(F)(F)CC3)nc2cc1OCCCN1CCCC1 [UNC0642],3.38 µM,5.2
O=C(c1ccc(C(=O)N2CCC(N3CCCC3)CC2)c(Nc2ccccc2)c1)N1CCC(N2CCCC2)CC1 [UNC1215],> 10 µM,0
CCCCNc1ncc(C(=O)NCc2ccc(-n3ccnc3)cc2)c(NC2CCC(O)CC2)n1 (stereo unspecified) [UNC2881],> 2.5 µM,0.1
NC(=O)c1cccc(-c2cccc(OC(=O)NC3CCCCC3)c2)c1 [URB597],> 1 µM,0
CC(C)Nc1cc(-c2c[nH]c(C(=O)N[C@H](CO)c3cccc(Cl)c3)c2)c(Cl)cn1 [Ulixertinib],> 10 µM,2.4
CC[C@@H]1CN(C(=O)NCC(F)(F)F)C[C@@H]1c1cnc2cnc3[nH]ccc3n12 [Upadacitinib],> 10 µM,1.1
Cn1ncc(Cl)c1-c1cc(C(=O)N[C@H](CN)Cc2ccc(F)c(F)c2)oc1Cl [Uprosertib],> 10 µM,2.4
CS(=O)(=O)c1ccc(-c2cnc(N)c(C(=O)Nc3ccccc3)n2)cc1 [VE-821],> 10 µM,0
O=C(O)CC1CC(c2ccccc2)=NO1 (stereo unspecified) [VGX-1027],> 10 µM,-0.1
C=CC(=O)N1CC/C(=C\c2ccc(F)c([N+](=O)[O-])c2)C(=O)/C(=C/c2ccc(F)c([N+](=O)[O-])c2)C1 [VLX1570],1.4 µM,9.6
CNC(=O)c1ccccc1Nc1cc(Nc2ccc(N3CCOCC3)cc2OC)ncc1C(F)(F)F [VS-4718],> 10 µM,5.6
CCCC(CCC)C(=O)O [Valproic acid],> 1000 µM,0
CCCCC(=O)OCC(=O)[C@]1(O)Cc2c(O)c3c(c(O)c2[C@@H](O[C@H]2C[C@H](NC(=O)C(F)(F)F)[C@H](O)[C@H](C)O2)C1)C(=O)c1c(OC)cccc1C3=O [Valrubicin],0.489 µM,10.8

SMILES,absolute EC50 for viability [1],drug sensitivity score [2]
COc1cc2/c(=N/c3ccc(Br)cc3F)nc[nH]c2cc1OCC1CCN(C)CC1 [Vandetanib],> 1 µM,2.5
CCc1c(C(=O)C(N)=O)c2c(OCC(=O)O)cccc2n1Cc1ccccc1 [Varespladib],> 10 µM,0
C[C@@H]1COC(Nc2ccc3ncnc(Nc4ccc(OCc5nccs5)c(Cl)c4)c3c2)=N1 [Varlitinib],> 10 µM,0.4
Clc1ccc(Nc2nnc(Cc3ccncc3)c3ccccc23)cc1 [Vatalanib],> 10 µM,0
C[C@]1(c2nc3c(C(N)=O)cccc3[nH]2)CCCN1 [Veliparib],> 10 µM,0
CCCS(=O)(=O)Nc1ccc(F)c(C(=O)c2c[nH]c3ncc(-c4ccc(Cl)cc4)cc23)c1F [Vemurafenib],> 10 µM,0
CC1(C)CCC(CN2CCN(c3ccc(C(=O)NS(=O)(=O)c4ccc(NCC5CCOCC5)c([N+](=O)[O-])c4)c(Oc4cnc5[nH]ccc5c4)c3)CC2)=C(c2ccc(Cl)cc2)C1 [Venetoclax],> 1 µM,0
O=C(/C=C\n1cnc(-c2cc(C(F)(F)F)cc(C(F)(F)F)c2)n1)NNc1ccccn1 [Verdinexor],> 1 µM,1.6
CCCCOc1nc(N)c2c(n1)N(Cc1cccc(CN3CCCC3)c1)CC(=O)N2 [Vesatolimod],> 10 µM,0
COc1cccc(-c2ccc(NC(=O)C3=C(C(=O)O)CCC3)c(F)c2)c1 [Vidofludimus],> 10 µM,0
CC[C@]1(O)C[C@@H]2CN(CCc3c([nH]c4ccccc34)[C@@](C(=O)OC)(c3cc4c(cc3OC)N(C)[C@H]3[C@@](O)(C(=O)OC)[C@H](OC(C)=O)[C@]5(CC)C=CCN6CC[C@]43[C@@H]65)C2)C1 [Vinblastine],> 1 µM,1.9
CC[C@]1(O)C[C@H]2CN(CCc3c([nH]c4ccccc34)[C@@](C(=O)OC)(c3cc4c(cc3OC)N(C=O)[C@H]3[C@@](O)(C(=O)OC)[C@H](OC(C)=O)[C@]5(CC)C=CCN6CC[C@]43[C@@H]65)C2)C1 [Vincristine],> 1 µM,3.4
CC[C@]12C=CCN3CC[C@@]4(c5cc([C@@]6(C(=O)OC)C[C@@H]7C[C@@H](C(C)(F)F)CN(Cc8c6[nH]c6ccccc86)C7)c(OC)cc5N(C)[C@H]4[C@@](O)(C(=O)OC)[C@@H]1OC(C)=O)[C@@H]32 [Vinflunine],> 1 µM,2.8
CCC1=C[C@@H]2CN(C1)Cc1c([nH]c3ccccc13)[C@@](C(=O)OC)(c1cc3c(cc1OC)N(C)[C@H]1[C@@](O)(C(=O)OC)[C@H](OC(C)=O)[C@]4(CC)C=CCN5CC[C@]31[C@@H]54)C2 [Vinorelbine],1.12 µM,16.5
CS(=O)(=O)c1ccc(C(=O)Nc2ccc(Cl)c(-c3ccccn3)c2)c(Cl)c1 [Vismodegib],> 10 µM,0
CNC(=O)c1cccc(-c2ccc3c(N4CCOC[C@@H]4C)nc(N4CCOC[C@@H]4C)nc3n2)c1 [Vistusertib],0.488 µM,13.7
CC[C@@H]1C(=O)N(C)c2cnc(Nc3ccc(C(=O)N[C@H]4CC[C@H](N5CCN(CC6CC6)CC5)CC4)cc3OC)nc2N1C(C)C [Volasertib],> 1 µM,1.5
O=C(CCCCCCC(=O)Nc1ccccc1)NO [Vorinostat],2.94 µM,5.6
Oc1nc(-c2ccc(C(F)(F)F)cc2)nc2c1CSCC2 [XAV-939],> 10 µM,1.5
FC(F)c1nc2ccccc2n1-c1nc(N2CCOCC2)nc(N2CCOCC2)n1 [ZSTK474],> 10 µM,7.2
Cc1sc2c(c1C)C(c1ccc(Cl)cc1)=N[C@@H](CC(=O)NCCCCNC(=O)COc1cccc3c1C(=O)N(C1CCC(=O)NC1=O)C3=O)c1nnc(C)n1-2 (stereo partly specified) [dBET1],2.05 µM,8.2
